SMILES strings stand for the structures. Values joined by “and” are separate entries in the source; they are usually repeats but may differ in a detail not shown here. Identical values can stand only once. Toxic doses and inconclusive results are not listed.

The test system of this experiment is L1210 leukemia ip in BDF1 mice, survival T/C. Nature of the experiment: NCI In Vivo Anticancer Drug Screen. Data for tumor model L1210 Leukemia (intraperitoneal) in B6D2F1 (BDF1) mice. As to conditions: endpoint: mean survival time, higher = longer survival. In outline: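 Transplanted-tumor mice were given test agent; controls received vehicle only. Survival readings from the two groups were divided (treated over control).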

Where [1] appears, read: dose: 50.0 mg/kg/injection, schedule: Q01DX001 (ip), vehicle: carboxymethylcellulose (CMC).
Setting [2] is: dose: 100.0 mg/kg/injection, schedule: Q01DX001 (ip), vehicle: carboxymethylcellulose (CMC).
[3] abbreviates: dose: 200.0 mg/kg/injection, schedule: Q01DX001 (ip), vehicle: carboxymethylcellulose (CMC).
[4] abbreviates: dose: 400.0 mg/kg/injection, schedule: Q01DX001 (ip), vehicle: carboxymethylcellulose (CMC).
The mark [5] stands for this setting: dose: 100.0 mg/kg/injection, schedule: Q01DX009 (ip), vehicle: Klucel (hydroxypropylcellulose) (HPC).
The mark [6] stands for this setting: dose: 200.0 mg/kg/injection, schedule: Q01DX009 (ip), vehicle: Klucel (hydroxypropylcellulose) (HPC).
Where [7] appears, read: dose: 400.0 mg/kg/injection, schedule: Q01DX009 (ip), vehicle: Klucel (hydroxypropylcellulose) (HPC).
[8] abbreviates: dose: 100.0 mg/kg/injection, schedule: Q04DX003 (ip), vehicle: saline.
The mark [9] stands for this setting: dose: 200.0 mg/kg/injection, schedule: Q04DX003 (ip), vehicle: saline.
The mark [10] stands for this setting: dose: 400.0 mg/kg/injection, schedule: Q04DX003 (ip), vehicle: saline.
The mark [11] stands for this setting: dose: 6.25 mg/kg/injection, schedule: Q01DX009 (ip), vehicle: saline.
Setting [12] is: dose: 25.0 mg/kg/injection, schedule: Q01DX009 (ip), vehicle: saline.
[13] abbreviates: dose: 100.0 mg/kg/injection, schedule: Q01DX009 (ip), vehicle: saline.
Where [14] appears, read: dose: 100.0 mg/kg/injection, schedule: Q01DX001 (ip), vehicle: saline.
Setting [15] is: dose: 200.0 mg/kg/injection, schedule: Q01DX001 (ip), vehicle: saline.
Where [16] appears, read: dose: 400.0 mg/kg/injection, schedule: Q01DX001 (ip), vehicle: saline.
Where [17] appears, read: dose: 100.0 mg/kg/injection, schedule: Q01DX001 (ip), vehicle: Klucel (hydroxypropylcellulose) (HPC).
Where [18] appears, read: dose: 200.0 mg/kg/injection, schedule: Q01DX001 (ip), vehicle: Klucel (hydroxypropylcellulose) (HPC).
Where [19] appears, read: dose: 400.0 mg/kg/injection, schedule: Q01DX001 (ip), vehicle: Klucel (hydroxypropylcellulose) (HPC).
Where [20] appears, read: dose: 100.0 mg/kg/injection, schedule: Q04DX003 (ip), vehicle: saline with Tween-80.
[21] abbreviates: dose: 200.0 mg/kg/injection, schedule: Q04DX003 (ip), vehicle: saline with Tween-80.
[22] abbreviates: dose: 400.0 mg/kg/injection, schedule: Q04DX003 (ip), vehicle: saline with Tween-80.
The mark [23] stands for this setting: dose: 100.0 mg/kg/injection, schedule: Q01DX009 (ip), vehicle: saline with Tween-80.
The mark [24] stands for this setting: dose: 200.0 mg/kg/injection, schedule: Q01DX009 (ip), vehicle: saline with Tween-80.
The mark [25] stands for this setting: dose: 400.0 mg/kg/injection, schedule: Q01DX009 (ip), vehicle: saline with Tween-80.

For `O=C(O)C1(Nc2ccc(-c3ccc(Br)cc3)cc2)CCCC1`, the T/C under setting [1] was 90 % of control, the T/C under setting [2] is 90 % of control, the T/C under setting [3] is 90 % of control and the T/C under setting [4] was 90 % of control.

With `COC1OC(CBr)C(OC(=O)c2ccccc2)C(OC(=O)c2ccccc2)C1OS(=O)(=O)c1ccc(C)cc1` (centres undefined), the T/C is, setting by setting: (dose: 50.0 mg/kg/injection, schedule: Q04DX002 (ip), vehicle: Klucel (hydroxypropylcellulose) (HPC)) 97 % of control; (dose: 100.0 mg/kg/injection, schedule: Q04DX002 (ip), vehicle: Klucel (hydroxypropylcellulose) (HPC)) 87 % of control; (dose: 200.0 mg/kg/injection, schedule: Q04DX002 (ip), vehicle: Klucel (hydroxypropylcellulose) (HPC)) 97 % of control.

In the case of `CCCCS(=O)CC(O)(c1ccccc1)c1ccccc1` (centres undefined), the T/C is 102 % of control (dose: 100.0 mg/kg/injection, schedule: Q03DX002 (ip), vehicle: saline with Tween-80) and 105 % of control (dose: 200.0 mg/kg/injection, schedule: Q03DX002 (ip), vehicle: saline with Tween-80).

As to `Cc1cc(C(=O)O)c(CO)c(=O)n1C`, the T/C was 104 % of control (dose: 100.0 mg/kg/injection, schedule: Q04DX003 (ip), vehicle: water); 104 % of control (dose: 200.0 mg/kg/injection, schedule: Q04DX003 (ip), vehicle: water); 94 % of control (dose: 400.0 mg/kg/injection, schedule: Q04DX003 (ip), vehicle: water).

`CC(C)(Cl)CNC(=O)c1ccc([N+](=O)[O-])cc1`: the T/C is, setting by setting: under setting [5], 92 % of control; (dose: 100.0 mg/kg/injection, schedule: Q04DX003 (ip), vehicle: Klucel (hydroxypropylcellulose) (HPC)) 107 % of control; under setting [6], 96 % of control; (dose: 200.0 mg/kg/injection, schedule: Q04DX003 (ip), vehicle: Klucel (hydroxypropylcellulose) (HPC)) 94 % of control; under setting [7], 91 % of control; (dose: 400.0 mg/kg/injection, schedule: Q04DX003 (ip), vehicle: Klucel (hydroxypropylcellulose) (HPC)) 92 % of control.

Regarding `c1ccc(SCN2CCN(CSc3ccccc3)CC2)cc1`, the T/C reads like this: under setting [8], 101 % of control; under setting [9], 101 % of control; under setting [10], 98 % of control.

Take `CC(CN1CC(=O)NC(=O)C1)N1CC(=O)NC(=O)C1.[Cl-].[Pt+4]` (centres undefined): the T/C was 110 % of control under setting [11]; 114 % of control and 120 % of control under setting [12]; 108 % of control (dose: 25.0 mg/kg/injection, schedule: Q04DX003 (ip), vehicle: saline); 120 % of control (dose: 50.0 mg/kg/injection, schedule: Q01DX009 (ip), vehicle: saline); 109 % of control and 120 % of control (dose: 50.0 mg/kg/injection, schedule: Q04DX003 (ip), vehicle: saline); 114 % of control under setting [13]. For the same molecule, the T/C under setting [8] was 153 % of control and the T/C (dose: 150.0 mg/kg/injection, schedule: Q04DX003 (ip), vehicle: saline) was 116 % of control.

For `C[S+](C)CC(=O)c1ccccc1`, the T/C is, setting by setting: under setting [8], 95 % of control; under setting [9], 104 % of control.

As for `COc1cc([N+](=O)[O-])c2nc(C)ccc2c1[N+](=O)[O-]`, the T/C was 100 % of control under setting [1], 100 % of control under setting [2], 100 % of control under setting [3] and 100 % of control under setting [4].

With `COc1ccccc1N(N=O)C(=O)CC(C)=O`, the T/C is 101 % of control under setting [14], 101 % of control under setting [15] and 101 % of control under setting [16].

In the case of `N#Cc1nc(CSc2ccc(Cl)cc2)cnc1N`, the T/C was 95 % of control under setting [17], 92 % of control under setting [18] and 89 % of control under setting [19].

As for `Cc1ccc(NC(=O)CCC(=O)O)cc1[N+](=O)[O-]`, the T/C is 97 % of control under setting [5], 101 % of control under setting [6] and 98 % of control under setting [7].

For the molecule `CCOc1ccc(-n2c(O)c(N=Nc3ccccc3C)c(=O)n(-c3ccc(OC)cc3)c2=S)cc1`, the T/C is, setting by setting: under setting [17], 94 % of control; under setting [18], 95 % of control; under setting [19], 89 % of control.

For `CCC(=O)NC1=C(N2CC2C)C(=O)C(NC(=O)CC)=C(N2CC2C)C1=O` (centres undefined), the T/C (dose: 3.12 mg/kg/injection, schedule: Q01DX009 (ip), vehicle: saline) is 111 % of control; the T/C under setting [11] was 124 % of control; the T/C (dose: 12.5 mg/kg/injection, schedule: Q01DX009 (ip), vehicle: saline) is 153 % of control; the T/C under setting [12] was 177 % of control; the T/C (dose: 35.0 mg/kg/injection, schedule: Q01DX009 (ip), vehicle: Klucel (hydroxypropylcellulose) (HPC)) is 103 % of control.

Regarding `Cc1cc(Br)c(N(C=O)N=O)c(Br)c1`, the T/C reads like this: (dose: 75.0 mg/kg/injection, schedule: Q01DX001 (ip), vehicle: saline) 101 % of control; (dose: 150.0 mg/kg/injection, schedule: Q01DX001 (ip), vehicle: saline) 104 % of control.

With `COC(=O)C1OC(n2cnc3c(N)ncnc32)C2OC(C)(C)OC12` (centres undefined), the T/C is 102 % of control (dose: 100.0 mg/kg/injection, schedule: Q01DX005 (ip), vehicle: saline) and 104 % of control (dose: 200.0 mg/kg/injection, schedule: Q01DX005 (ip), vehicle: saline).

For `O=[N+]([O-])c1cc(S(=O)(=O)N2CCCC2)ccc1N1CCCC1`, the T/C by setting is: under setting [8], 100 % of control; under setting [9], 96 % of control; under setting [10], 105 % of control.

As to `CCOC(=O)CCC(C(=O)OCC)N(CC(=O)OCC)C(=O)c1ccccc1` (centres undefined), the T/C is 102 % of control under setting [20], 98 % of control under setting [21] and 96 % of control under setting [22].

In the case of `O=[N+]([O-])c1cccc(/C=C/C=C/c2ccc(S(=O)(=O)F)cc2Cl)c1`, the T/C is, setting by setting: under setting [23], 100 % of control; under setting [20], 94 % of control; under setting [24], 93 % of control; under setting [21], 95 % of control; under setting [25], 91 % of control; under setting [22], 90 % of control.

For `COc1ccc2c(c1)CN(S(=O)(=O)c1ccc(C)cc1)CC/C2=N\O`, the T/C under setting [13] was 94 % of control; the T/C (dose: 200.0 mg/kg/injection, schedule: Q01DX009 (ip), vehicle: saline) is 94 % of control; the T/C (dose: 400.0 mg/kg/injection, schedule: Q01DX009 (ip), vehicle: saline) was 104 % of control.

`O=C(OCCO)c1ccccc1O`: the T/C is 102 % of control (dose: 75.0 mg/kg/injection, schedule: Q01DX009 (ip), vehicle: saline sonified); 102 % of control under setting [8]; 116 % of control (dose: 150.0 mg/kg/injection, schedule: Q01DX009 (ip), vehicle: saline sonified); 98 % of control under setting [9]; 108 % of control (dose: 300.0 mg/kg/injection, schedule: Q01DX009 (ip), vehicle: saline sonified); 102 % of control under setting [10].

`O=C(c1ccc([N+](=O)[O-])cc1)N1CC1Cc1ccccc1` (centres undefined): the T/C is, setting by setting: under setting [17], 89 % of control; under setting [18], 89 % of control.

Consider `COCc1ccc([N+](=O)[O-])o1`, for which the T/C is, setting by setting: under setting [14], 101 % of control; under setting [15], 103 % of control; under setting [16], 101 % of control.

Take `Oc1ccc2ccccc2c1N=Nc1ccc(N=Nc2ccccc2)cc1`: the T/C is 102 % of control under setting [23], 106 % of control under setting [24] and 102 % of control under setting [25].

For `COc1ccc(/C=N/O)cc1`, the T/C (dose: 50.0 mg/kg/injection, schedule: Q01DX001 (ip), vehicle: saline) is 100 % of control; the T/C under setting [14] is 93 % of control; the T/C under setting [15] was 100 % of control; the T/C under setting [16] is 96 % of control.

For the origin of these results see PubChem BioAssay AID248 (DTP/NCI, 2004).
